{
  "source": "patent US4833152A",
  "about": "“Anti-hypertensive agents” (University of Miami, priority 1987, dated 1989)",
  "origin": "cited, not measured here",
  "key": {"[1]": {"test_system": "ACE"}, "[2]": {"conditions": "1 mg per ml, pH about 8, as little as 30 minutes, ambient conditions"}},
  "data": [
    {"smiles": "C[C@H](CSSC[C@@H](C)C(=O)N1CCC[C@H]1C(=O)O)C(=O)N1CCC[C@H]1C(=O)O", "note": "[disulfide]", "values": [
      {"measurement": "inhibitory activity of the disulfide", "setting": "[1]; disulfide formed by dimerization of SQ14225, believed", "value": "largely inactive as an inhibitor"}
    ]},
    {"smiles": "CC(=O)SC[C@@H](C)C(=O)N1CCC[C@H]1C(=O)O", "note": "[S-acetyl derivative]", "values": [
      {"measurement": "potency of the inhibitor on substitution of the sulfhydryl", "setting": "[1]; relative to free sulfhydryl SQ14225, Cushman et al., Biochemistry", "value": "substantially reduced potency of the inhibitor"}
    ]},
    {"smiles": "C[C@H](CS)C(=O)N1CCCC1C(=O)O", "note": "(stereo in doubt) [SQ14225, D-3-mercapto-2-methylpropanoyl-L-proline]", "values": [
      {"measurement": "loss of activity of fresh aqueous solution on standing", "setting": "[2]", "value": "substantially less active upon standing for as little as 30 minutes"},
      {"measurement": "ACE inhibition, in words", "setting": "[1]; U.S. Pat. No. 4,046,889, Cushman 1977, Ondetti 1977", "value": "highly effective inhibitor"}
    ]}
  ]
}
